From patent publication US20250326814A1, “MODIFIED OXYNTOMODULIN AND METHODS OF USE THEREOF” (OPKO BIOLOGICS LTD., priority 2024, published 2025)
One block for each molecule: values may come before it. Starred links: 1 amine or outer side, 2 acyl side, 3 side chain; linkers in the order of their positions; H or OH if unused. Non-standard residues stand in square brackets, D forms with d. Residues, ends and D or L forms follow the SMILES beside them. Groups on a side chain read outwards from the residue. *: point of attachment. C20 diacid = O=C(O)CCCCCCCCCCCCCCCCCCC(=O)*; γGlu = O=C(O)[C@H](CCC(=O)[*:2])N[*:1]; AEEA = NCCOCCOCC(=O)O; Aib = CC(C)(N)C(=O)O

Key:
[1] = target: T1, glucagon-like peptide-1 (GLP1) receptor (Homo sapiens, UniProt P43220); experiment: GLP-1 activity EC50 of OXM analogs and GLP-1 therapeutics (Example 4, Table 9); format: cell-based; conditions: Example 4; read-out: GLP-1 activity (EC50)
T1 construct: expressed in transfected cells; host or cells: CHO-K1
Text: The potencies of the modified OXM analogs newly disclosed in the present application, the OXM Analog alone, and the PEGylated OXM analog were examined and compared by measuring the EC50 of both receptors, glucagon-like peptide-1 (GLP1) and glucagon (GCGR).

GCGR [2] = target: T2, GCGR (Homo sapiens, UniProt P47871); experiment: CBA potency assay, GCGR (Tables 10 and 11); format: cell-based
Text: (§1) The impact of the longevity-enabling molecule (PEG Vs. FA-peptide/binder complex) on the peptide potency was studied.

GLP1 [3] = target: T3, GLP1 (Homo sapiens, UniProt P43220); experiment: CBA potency assay, GLP1 (Tables 10 and 11); format: cell-based
Text: as §1

GLP1 [4] = target: T3, GLP1; experiment: GLP-1 activity in vitro of PEGylated and acylated OXM peptide analogs (Table 12); format: cell-based
Protocol: (§2) The potential benefits of novel acylated OXM products relative to the PEGylated OXM peptide were evaluated for GLP-1 and Glucagon activity in vitro, molecular weight, dosing, and efficacy in a DIO Mouse model.
(§3) The potency of the acylated OXM peptides was compared with the native OXM peptide alone and Pegylated OXM peptide to evaluate the impact of acylation on GLP-1 and Glucagon activities.

GCGR [5] = target: T2, GCGR; experiment: Glucagon activity in vitro of PEGylated and acylated OXM peptide analogs (Table 12); format: cell-based; conditions: for GCGR/GLP-1R: ratio of EC50 activity
Protocol: as §2, §3

DIO mice = experiment: Weight loss in DIO mice with OPK-88604 and OPK-88006, 30 nmoles/kg; format: in vivo; conditions: vs placebo
Protocol: The animals were individually weighed and analyzed for lipid and cholesterol levels prior to treatment and following completion of the study. The levels of fasting glucose and insulin levels were analyzed, and oral glucose tolerance test was performed and compared between groups The levels of plasma triglycerides and cholesterol were evaluated at the end of study and compared to base levels prior to treatment. Levels of total cholesterol, triglycerides and glycogen were also examined at the end of study. Histology of liver was used to analyze for lipid droplets in the liver. All tests were conducted using routine methods known in the art.
DIO mice with weights of around 55 grams were divided into three groups and treated with placebo, 30 nmoles/kg of OPK-88604, or 30 nmoles/kg of OPK-88006 for 4 weeks. The animals were weighed daily for the period of treatment.

[6] = Viscosity of the formulated PEGylated OXM product; format: physicochemical

T3 sequence (P43220 24-463): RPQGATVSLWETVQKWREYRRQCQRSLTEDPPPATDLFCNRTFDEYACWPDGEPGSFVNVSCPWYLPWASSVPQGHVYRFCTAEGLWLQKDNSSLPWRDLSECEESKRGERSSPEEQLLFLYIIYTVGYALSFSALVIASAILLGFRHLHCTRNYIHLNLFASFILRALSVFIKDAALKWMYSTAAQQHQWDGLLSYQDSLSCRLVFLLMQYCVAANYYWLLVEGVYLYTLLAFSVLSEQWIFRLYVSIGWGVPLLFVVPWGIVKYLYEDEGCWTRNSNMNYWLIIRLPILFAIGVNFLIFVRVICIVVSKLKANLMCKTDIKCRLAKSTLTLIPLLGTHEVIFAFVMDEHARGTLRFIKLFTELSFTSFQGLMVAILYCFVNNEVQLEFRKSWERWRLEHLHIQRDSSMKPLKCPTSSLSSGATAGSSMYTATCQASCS
T2 sequence (P47871 26-477): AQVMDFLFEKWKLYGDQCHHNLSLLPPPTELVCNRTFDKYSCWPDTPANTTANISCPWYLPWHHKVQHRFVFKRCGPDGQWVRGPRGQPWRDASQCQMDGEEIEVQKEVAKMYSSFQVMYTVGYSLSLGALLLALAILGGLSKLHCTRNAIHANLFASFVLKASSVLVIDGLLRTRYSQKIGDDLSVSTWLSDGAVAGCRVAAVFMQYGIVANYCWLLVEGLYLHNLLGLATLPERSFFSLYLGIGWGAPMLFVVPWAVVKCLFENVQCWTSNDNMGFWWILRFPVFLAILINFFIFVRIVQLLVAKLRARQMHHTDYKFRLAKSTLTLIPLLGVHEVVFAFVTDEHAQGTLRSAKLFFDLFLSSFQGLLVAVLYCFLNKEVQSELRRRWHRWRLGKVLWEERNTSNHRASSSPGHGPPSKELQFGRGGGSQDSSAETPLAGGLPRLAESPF
T1 sequence (P43220 24-463): as the sequence (P43220 24-463) above

EC50 [1]: 0.105 nM
% EC50 compare to KPI (GCGR) (GCGR [2]; Table 10): 100%
EC50 (GCGR [2]; Table 10): 0.6 nM
EC50 ratio (GCGR\GLP-1R) (GCGR [2]; Table 10): 4.7
% EC50 compare to KPI (GCGR) (GCGR [2]; Table 11, + HSA): 129%
EC50 (GCGR [2]; Table 11, + HSA): 1.06 nM
EC50 ratio (GCGR\GLP-1R) (GCGR [2]; Table 11, + HSA): 5.7
% EC50 compare to KPI (GCGR) (GCGR [2]; Table 11, without HSA): 100%
EC50 (GCGR [2]; Table 11, without HSA): 1.37 nM
EC50 ratio (GCGR\GLP-1R) (GCGR [2]; Table 11, without HSA): 6.8
% EC50 compare to KPI (GLP1) (GLP1 [3]; Table 10): 100%
EC50 (GLP1 [3]; Table 10): 0.127 nM
% EC50 compare to KPI (GLP1) (GLP1 [3]; Table 11, + HSA): 107%
EC50 (GLP1 [3]; Table 11, + HSA): 0.187 nM
% EC50 compare to KPI (GLP1) (GLP1 [3]; Table 11, without HSA): 100%
EC50 (GLP1 [3]; Table 11, without HSA): 0.201 nM
EC50 (GLP1 [4]): 0.0168 nM
EC50 (GCGR [5]): 0.0731 nM
GCGR/GLP-1R (GCGR [5]): 4.4
Molecule: CC[C@H](C)[C@H](NC(=O)[C@H](CC(N)=O)NC(=O)[C@H](CC(N)=O)NC(=O)[C@H](CCCNC(=N)N)NC(=O)[C@H](CC(N)=O)NC(=O)[C@H](CCCNC(=N)N)NC(=O)CNC(=O)C(C)(C)NC(=O)[C@H](CC(N)=O)NC(=O)[C@H](CC(C)C)NC(=O)[C@H](CC(C)C)NC(=O)[C@H](Cc1c[nH]c2ccccc12)NC(=O)[C@H](CCC(N)=O)NC(=O)[C@@H](NC(=O)[C@H](Cc1ccccc1)NC(=O)[C@H](CCC(=O)O)NC(=O)[C@H](CCC(N)=O)NC(=O)[C@H](C)NC(=O)[C@H](CCCCN)NC(=O)[C@H](CCCCN)NC(=O)[C@H](CO)NC(=O)[C@H](CC(=O)O)NC(=O)[C@H](CC(C)C)NC(=O)[C@H](Cc1ccc(O)cc1)NC(=O)[C@H](CCCCN)NC(=O)[C@H](CO)NC(=O)[C@H](Cc1ccc(O)cc1)NC(=O)[C@H](CC(=O)O)NC(=O)[C@H](CO)NC(=O)[C@@H](NC(=O)[C@H](Cc1ccccc1)NC(=O)[C@@H](NC(=O)CNC(=O)[C@H](CCC(N)=O)NC(=O)C(C)(C)NC(=O)[C@@H](N)Cc1c[nH]cn1)[C@@H](C)O)[C@@H](C)O)C(C)C)C(=O)N[C@@H](C)C(=O)N[C@@H](CS)C(=O)N[C@@H](CS)C(N)=O [OPK-88003 KPI]

EC50 (GLP1 [4]): 0.019 nM
EC50 (GCGR [5]): 0.31 nM
GCGR/GLP-1R (GCGR [5]): 16.3
Molecule: CC[C@H](C)[C@H](NC(=O)[C@H](CC(N)=O)NC(=O)[C@H](CC(N)=O)NC(=O)[C@H](CCCNC(=N)N)NC(=O)[C@H](CC(N)=O)NC(=O)[C@H](CCCNC(=N)N)NC(=O)CNC(=O)C(C)(C)NC(=O)[C@H](CC(N)=O)NC(=O)[C@H](CC(C)C)NC(=O)[C@H](CC(C)C)NC(=O)[C@H](Cc1c[nH]c2ccccc12)NC(=O)[C@H](CCC(N)=O)NC(=O)[C@@H](NC(=O)[C@H](Cc1ccccc1)NC(=O)[C@H](CCC(=O)O)NC(=O)[C@H](CCC(N)=O)NC(=O)[C@H](C)NC(=O)[C@H](CCCCN)NC(=O)[C@H](CCCCN)NC(=O)[C@H](CO)NC(=O)[C@H](CC(=O)O)NC(=O)[C@H](CC(C)C)NC(=O)[C@H](Cc1ccc(O)cc1)NC(=O)[C@H](CCCCN)NC(=O)[C@H](CO)NC(=O)[C@H](Cc1ccc(O)cc1)NC(=O)[C@H](CC(=O)O)NC(=O)[C@H](CO)NC(=O)[C@@H](NC(=O)[C@H](Cc1ccccc1)NC(=O)[C@@H](NC(=O)CNC(=O)[C@H](CCC(N)=O)NC(=O)C(C)(C)NC(=O)[C@@H](N)Cc1c[nH]cn1)[C@@H](C)O)[C@@H](C)O)C(C)C)C(=O)N[C@@H](C)C(=O)N[C@@H](CCCCNC(=O)COCCOCCNC(=O)COCCOCCNC(=O)CC[C@H](NC(=O)CCCCCCCCCCCCCCCCCCC(=O)O)C(=O)O)C(=O)NCC(N)=O [Variant 5] (H-H[Aib]QGTFTSDYSKYLDSKKAQEFVQWLLN[Aib]GRNRNNIAK([AEEA-AEEA-γGlu-C20 diacid])G-NH2)
weight loss over 4 weeks (FIG. 41A, 41B) (DIO mice): significant weight loss over 4 weeks

Molecule: OPK-88003 API: SEQ ID NO: 3 where Xaa38=Cys-PEG20 and Xaa39=Cys-PEG20
viscosity of the formulated product [6]: high viscosity
